From paper PMC10866072, “Design, synthesis, molecular modelling and biological evaluation of novel 6-amino-5-cyano-2-thiopyrimidine derivatives as potent anticancer agents against leukemia and apoptotic inducers” (Journal of Enzyme Inhibition and Medicinal Chemistry, 2024)

Tests used:
CCRF-CEM = format: cell-based; details: Homo sapiens, one dose 10^-5 M, 48 h
HL-60(TB) = format: cell-based; details: Homo sapiens, one dose 10^-5 M, 48 h
K-562 = format: cell-based; details: Homo sapiens, K562, one dose 10^-5 M, 48 h
MOLT-4 = format: cell-based; details: Homo sapiens, one dose 10^-5 M, 48 h, read-out: % growth
RPMI-8226 = format: cell-based; details: Homo sapiens, one dose 10^-5 M, 48 h
SR = format: cell-based; details: Homo sapiens, one dose 10^-5 M, 48 h
A549/ATCC = format: cell-based; details: Homo sapiens, one dose 10^-5 M, 48 h
EKVX = format: cell-based; details: Homo sapiens, one dose 10^-5 M, 48 h
HOP-62 = format: cell-based; details: Homo sapiens, one dose 10^-5 M, 48 h
HOP-92 = format: cell-based; details: Homo sapiens, one dose 10^-5 M, 48 h
NCI-H226 = format: cell-based; details: Homo sapiens, one dose 10^-5 M, 48 h
NCI-H23 = format: cell-based; details: Homo sapiens, one dose 10^-5 M, 48 h, read-out: % growth
NCI-H460 = format: cell-based; details: Homo sapiens, one dose 10^-5 M, 48 h, read-out: % growth
NCI-H522 = format: cell-based; details: Homo sapiens, one dose 10^-5 M, 48 h
COLO 205 = format: cell-based; details: Homo sapiens, one dose 10^-5 M, 48 h
HCC-2998 = format: cell-based; details: Homo sapiens, one dose 10^-5 M, 48 h
HCT-116 = format: cell-based; details: Homo sapiens, one dose 10^-5 M, 48 h, read-out: % growth
HCT-15 = format: cell-based; details: Homo sapiens, one dose 10^-5 M, 48 h, read-out: % growth
HT29 = format: cell-based; details: Homo sapiens, HT-29, one dose 10^-5 M, 48 h
KM12 = format: cell-based; details: Homo sapiens, one dose 10^-5 M, 48 h
SW-620 = format: cell-based; details: Homo sapiens, one dose 10^-5 M, 48 h
SF-268 = format: cell-based; details: Homo sapiens, one dose 10^-5 M, 48 h, read-out: % growth
SF-295 = format: cell-based; details: Homo sapiens, one dose 10^-5 M, 48 h
SF-539 = format: cell-based; details: Homo sapiens, one dose 10^-5 M, 48 h
SNB-19 = format: cell-based; details: Homo sapiens, one dose 10^-5 M, 48 h, read-out: % growth
U251 = format: cell-based; details: Homo sapiens, U-251, one dose 10^-5 M, 48 h
LOX IMVI = format: cell-based; details: Homo sapiens, one dose 10^-5 M, 48 h, read-out: % growth
MALME-3M = format: cell-based; details: Homo sapiens, one dose 10^-5 M, 48 h
M14 = format: cell-based; details: Homo sapiens, one dose 10^-5 M, 48 h
MDA-MB-435 = format: cell-based; details: Homo sapiens, one dose 10^-5 M, 48 h, read-out: % growth
SK-MEL-2 = format: cell-based; details: Homo sapiens, one dose 10^-5 M, 48 h
SK-MEL-28 = format: cell-based; details: Homo sapiens, one dose 10^-5 M, 48 h
SK-MEL-5 = format: cell-based; details: Homo sapiens, one dose 10^-5 M, 48 h, read-out: % growth
UACC-257 = format: cell-based; details: Homo sapiens, one dose 10^-5 M, 48 h
UACC-62 = format: cell-based; details: Homo sapiens, one dose 10^-5 M, 48 h
IGROV1 = format: cell-based; details: Homo sapiens, IGROV-1, one dose 10^-5 M, 48 h, read-out: % growth
OVCAR-3 = format: cell-based; details: Homo sapiens, one dose 10^-5 M, 48 h
OVCAR-4 = format: cell-based; details: Homo sapiens, one dose 10^-5 M, 48 h
OVCAR-5 = format: cell-based; details: Homo sapiens, one dose 10^-5 M, 48 h
OVCAR-8 = format: cell-based; details: Homo sapiens, one dose 10^-5 M, 48 h
NCI/ADR-RES = format: cell-based; details: Homo sapiens, one dose 10^-5 M, 48 h
SK-OV-3 = format: cell-based; details: Homo sapiens, one dose 10^-5 M, 48 h
786-0 = format: cell-based; details: Homo sapiens, one dose 10^-5 M, 48 h
A498 = format: cell-based; details: Homo sapiens, one dose 10^-5 M, 48 h
ACHN = format: cell-based; details: Homo sapiens, one dose 10^-5 M, 48 h
CAKI-1 = format: cell-based; details: Homo sapiens, CAKI-1, 48 h, one dose 10^-5 M, 48 h
RXF 393 = format: cell-based; details: Homo sapiens, RXF 393, 48 h, one dose 10^-5 M, 48 h, read-out: % growth
SN12C = format: cell-based, human; details: Homo sapiens, one dose 10^-5 M, 48 h
TK-10 = format: cell-based; details: Homo sapiens, one dose 10^-5 M, 48 h
UO-31 = format: cell-based; details: Homo sapiens, UO-31, 48 h, one dose 10^-5 M, 48 h
PC-3 = format: cell-based; details: Homo sapiens, one dose 10^-5 M, 48 h
DU-145 = format: cell-based; details: Homo sapiens, one dose 10^-5 M, 48 h
MCF7 = format: cell-based; details: Homo sapiens, one dose 10^-5 M, 48 h, read-out: % growth
MDA-MB-231/ATCC = format: cell-based; details: Homo sapiens, one dose 10^-5 M, 48 h
HS 578T = format: cell-based; details: Homo sapiens; one dose 10^-5 M, 48 h; HS 578T; read-out: % growth
BT-549 = format: cell-based; details: Homo sapiens, one dose 10^-5 M, 48 h
T-47D = format: cell-based; details: Homo sapiens, T47D, one dose 10^-5 M, 48 h, read-out: % growth
MDA-MB-468 = format: cell-based; details: Homo sapiens, one dose 10^-5 M, 48 h
[1] = test system: full NCI 60 cell lines panel; details: for activity at 10 µM: Homo sapiens, 60 cell, 48 h, read-out: Mean % growth
[2] = MTT cytotoxicity on normal cells; format: cell-based; details: human, WI-38 cells (normal lung fibroblasts), WI-38 normal cells, mean ± SD of three experiments, read-out: IC50 (cytotoxic activity)
Experimental: The American Type Culture Collection provided WI-38 cells (normal lung cells). The cells were grown in DMEM with 10% heat-inactivated FBS (Hyclone), 10 µg/ml of insulin (Sigma), and 1% penicillin-streptomycin. The remaining chemicals and reagents were all from Sigma or Invitrogen. The MTT test was used to evaluate cytotoxicity, as described previously. Graph pad Prism software (San Diego, CA) was used to estimate the 50% inhibitory concentration (IC50) from dose response curve graphic plots for each conc.

CN(C)c1ccc(-c2nc(S)nc(N)c2-c2ncn[nH]2)cc1 [Compound 5a, 4-Aamino-6-[4-(dimethylamino)phenyl]-5-(1H-1,2,4-triazol-5-yl)pyrimidine-2-thiol]
% cell growth at 10 µM (CCRF-CEM): 103% | % growth at 10 µM (HL-60(TB)): 84.4% | % growth at 10 µM (K-562): 89.8% | activity at 10 µM (MOLT-4): 100% | % growth at 10 µM (RPMI-8226): 109% | percent cell growth at 10 µM (SR): 85.7% | % growth at 10 µM (A549/ATCC): 108% | % cell growth at 10 µM (EKVX): 121% | % growth at 10 µM (HOP-62): 103% | % growth at 10 µM (HOP-92): 100% | % growth at 10 µM (NCI-H226): 110% | activity at 10 µM (NCI-H23): 108% | activity at 10 µM (NCI-H460): 111% | % growth at 10 µM (NCI-H522): 101% | % growth at 10 µM (COLO 205): 116% | % growth at 10 µM (HCC-2998): 112% | activity at 10 µM (HCT-116): 102% | activity at 10 µM (HCT-15): 116% | % growth at 10 µM (HT29): 111% | % growth at 10 µM (KM12): 105% | % growth at 10 µM (SW-620): 106% | activity at 10 µM (SF-268): 107% | % cell growth at 10 µM (SF-295): 104% | % growth at 10 µM (SF-539): 108% | activity at 10 µM (SNB-19): 102% | % growth at 10 µM (U251): 111% | activity at 10 µM (LOX IMVI): 109% | % growth at 10 µM (MALME-3M): 96.7% | % growth at 10 µM (M14): 105% | activity at 10 µM (MDA-MB-435): 113% | % growth at 10 µM (SK-MEL-2): 116% | % cell growth at 10 µM (SK-MEL-28): 119% | activity at 10 µM (SK-MEL-5): 108% | percent cell growth at 10 µM (UACC-257): 113% | % growth at 10 µM (UACC-62): 102% | activity at 10 µM (IGROV1): 109% | % growth at 10 µM (OVCAR-3): 111% | % growth at 10 µM (OVCAR-4): 115% | percent cell growth at 10 µM (OVCAR-5): 120% | % growth of cells at 10 µM (OVCAR-8): 113% | cell growth percent at 10 µM (NCI/ADR-RES): 115% | % growth at 10 µM (SK-OV-3): 103% | % growth at 10 µM (786-0): 96.3% | % growth at 10 µM (A498): 131% | % growth at 10 µM (ACHN): 119% | % growth at 10 µM (CAKI-1): 89.7% | activity at 10 µM (RXF 393): 113% | % growth at 10 µM (SN12C): 106% | % cell growth at 10 µM (TK-10): 117% | % cell growth at 10 µM (UO-31): 93.9% | percent cell growth at 10 µM (PC-3): 102% | % growth at 10 µM (DU-145): 115% | activity at 10 µM (MCF7): 96.6% | % growth at 10 µM (MDA-MB-231/ATCC): 107% | activity at 10 µM (HS 578T): 113% | % cell growth at 10 µM (BT-549): 98.1% | activity at 10 µM (T-47D): 109% | percent cell growth at 10 µM (MDA-MB-468): 110% | activity at 10 µM [1]: 107% | activity on all 60 cancer cell lines tested (in words) ([1]; one dose): weak activity

Nc1nc(S)nc(-c2ccc(Cl)cc2Cl)c1-c1ncn[nH]1 [Compound 5c, 4-Amino-6–(2,4-dichlorophenyl)-5-(1H-1,2,4-triazol-5-yl)pyrimidine-2-thiol]
% cell growth at 10 µM (CCRF-CEM): 92.7% | % growth at 10 µM (HL-60(TB)): 70.9% | % growth at 10 µM (K-562): 98% | activity at 10 µM (MOLT-4): 91.4% | % growth at 10 µM (RPMI-8226): 103% | percent cell growth at 10 µM (SR): 83.2% | % growth at 10 µM (A549/ATCC): 102% | % cell growth at 10 µM (EKVX): 50% | % growth at 10 µM (HOP-62): 93.9% | % growth at 10 µM (HOP-92): 106% | % growth at 10 µM (NCI-H226): 110% | activity at 10 µM (NCI-H23): 105% | activity at 10 µM (NCI-H460): 108% | % growth at 10 µM (NCI-H522): 88.8% | % growth at 10 µM (COLO 205): 104% | % growth at 10 µM (HCC-2998): 105% | activity at 10 µM (HCT-116): 97.8% | activity at 10 µM (HCT-15): 102% | % growth at 10 µM (HT29): 102% | % growth at 10 µM (KM12): 103% | % growth at 10 µM (SW-620): 102% | activity at 10 µM (SF-268): 101% | % cell growth at 10 µM (SF-295): 100% | % growth at 10 µM (SF-539): 101% | activity at 10 µM (SNB-19): 97.1% | % growth at 10 µM (U251): 105% | activity at 10 µM (LOX IMVI): 104% | % growth at 10 µM (MALME-3M): 98.2% | % growth at 10 µM (M14): 98.7% | activity at 10 µM (MDA-MB-435): 105% | % growth at 10 µM (SK-MEL-2): 104% | % cell growth at 10 µM (SK-MEL-28): 115% | activity at 10 µM (SK-MEL-5): 94.8% | percent cell growth at 10 µM (UACC-257): 112% | % growth at 10 µM (UACC-62): 95.3% | activity at 10 µM (IGROV1): 102% | % growth at 10 µM (OVCAR-3): 109% | % growth at 10 µM (OVCAR-4): 105% | percent cell growth at 10 µM (OVCAR-5): 107% | % growth of cells at 10 µM (OVCAR-8): 103% | cell growth percent at 10 µM (NCI/ADR-RES): 106% | % growth at 10 µM (SK-OV-3): 94.2% | % growth at 10 µM (786-0): 90.7% | % growth at 10 µM (A498): 120% | % growth at 10 µM (ACHN): 109% | % growth at 10 µM (CAKI-1): 90.8% | activity at 10 µM (RXF 393): 110% | % growth at 10 µM (SN12C): 107% | % cell growth at 10 µM (TK-10): 114% | % cell growth at 10 µM (UO-31): 89.9% | percent cell growth at 10 µM (PC-3): 95.8% | % growth at 10 µM (DU-145): 112% | activity at 10 µM (MCF7): 94.1% | % growth at 10 µM (MDA-MB-231/ATCC): 104% | activity at 10 µM (HS 578T): 98.6% | % cell growth at 10 µM (BT-549): 97.3% | activity at 10 µM (T-47D): 106% | percent cell growth at 10 µM (MDA-MB-468): 104% | activity at 10 µM [1]: 100%

C[C@H](Nc1ncnc2[nH]cnc12)c1cc2cccc(Cl)c2c(=O)n1-c1ccccc1 [Duvelisib]
IC50 [2]: 22.8 ± 0.65 µM
